Patent US20220370445A1, “METHODS FOR ADMINISTERING (R)-N-[4-(1,4,5,6-TETRAHYDRO-6-OXO-3-PYRIDAZINYL)PHENYL]ACETAMIDE” (ORION CORPORATION, priority 2019, published 2022)
Counter-ions that a name gives are not always drawn.

Tests used:
[1] = Bioavailability of compound (I) by ocular, intranasal or oromucosal administration vs i.v. in dogs; format: in vivo; settings: Beagle dogs; for bioavailability: dog, plasma, n=6
Protocol: (§1) Bioavailability of compound (I) given by ocular (4 μg/kg), intranasal (4 μg/kg) or oromucosal dosing (5 μg/kg) was compared to 4 μg/kg intravenous (i.v.) administration in Beagle dogs.
The study was a crossover study with at least 6 days washout period between the treatment periods. The animals were fasted overnight before dosing by withdrawing the remaining feed (if any) at least 12 h before dosing. On dosing days, food was offered approximately at 4 h after dosing (after the 4 h blood sampling).
(§2) Composition of Formulation Example 1 was used for ocular administration, composition of Formulation Example 2 was used for intranasal administration and composition of Formulation Example 3 was used for oromucosal administration.
(§3) Ocular and intranasal doses were divided equally to both eyes or both nostrils. Oromucosal gel formulation was administered to buccal/gingival mucosa of the dog. The intravenous dose was administered in cephalic vein in slow i.v. bolus dosed within 30 seconds. Blood samples were collected into K2EDTA tubes over a 48 h period after each treatment at the following time points: predose, 2 min, 5 min, 10 min, 20 min, 30 min, 45 min, 1 h, 2 h, 4 h, 6 h, 8 h, 12 h, 24 h and 48 h post administration. Aliquots of plasma were prepared and stored frozen until analysis. Compound (I) concentration in plasma was determined using Liquid chromatography-triple quadrupole mass spectrometry. The lower limit of quantification for compound (I) in dog plasma was 0.1 ng/ml.

[2] = Local tolerance of compound (I) given by ocular, intranasal or oromucosal administration to dogs; format: in vivo; settings: any administration route (ocular, intranasal, oromucosal), Beagle dogs
Protocol: Experiment 1. Bioavailability and Local Tolerance of Compound (I) Given by Ocular, Intranasal or Oromucosal Administration to Dogs.
as §1, §2, §3

[3] = Bioavailability of compound (I) given by oropharyngeal aspiration to rats vs i.v.; format: in vivo, Male Sprague Dawley rats; settings: for bioavailability: male, Sprague Dawley, rat, plasma, other: oropharyngeal aspiration, read-out: bioavailability of oropharyngeal administration
Protocol: Oropharyngeal aspiration administration has been developed as an alternative technique for the inhaled delivery of medicaments to the lungs and provides a means to mimic human lung exposure of medicaments by inhalation (Hulland, K. et al., American Journal of Respiratory and Critical Care Medicine 2016, 193:A5928 and Barbayianni, I. et al., Frontiers of Medicine, September 2018, Vol 5, Article 269, 1-6).
Bioavailability of compound (I) given by oropharyngeal aspiration (dosing 10 or 20 μg/kg) was compared to 10 μg/kg intravenous (i.v.) administration in Male Sprague Dawley rats.
Composition for oropharyngeal dosing was as follows:
The oropharyngeal dose was administered to animals which were lightly anaesthetized by isoflurane inhalation. The animals were placed on a vertical stand the top teeth hooked over a rubber band to open the mouth. The 100 μl dose was dispensed by positive displacement pipette at the back of the throat of the animal while holding the tongue to prevent swallowing and nose held to encourage breathing through the mouth for (at least) 3 breaths. The nose released but tongue continually held for an additional couple of breaths to ensure solution deposited in the lungs and not swallowed. All animals recovered consciousness post dose.
The intravenous dose was administered as a slow bolus injection over 30 seconds via the lateral tail vein.
Blood samples were collected into a K2EDTA tube such as to obtain a sample after 5 min, 15 min, 30 min, 1 h, 3 h, 5 h, 8 h, 12 h, 24 h and 48 h post administration.
Aliquots of plasma were prepared and stored frozen until analysis. Compound (I) concentration in plasma was determined using a liquid chromatography-tandem mass spectrometry (LC-MS/MS). The lower limit of quantification for compound (I) in rat plasma was 0.02 ng/ml.

[4] = in man; cited from earlier work
[5] = system: heart rate; assay: Effect of compound (I) alone or together with ivabradine on heart rate by oromucosal administration (telemetry); format: in vivo, Beagle dogs
Protocol: Male beagle dogs (n=3) were given a dose of compound (I) using oromucosal gel according to Formulation Example 3a alone (dosing period 1) or together with a dose of ivabradine using oromucosal gel according to Formulation Example 3c (dosing period 2). The dose of compound (I) was 18.5 μg/kg and the dose of ivabradine was 1 mg/kg (calculated as ivabradine base). Each dose was divided into two sites on gingival mucosa. The washout period between the dosing periods was at least 6 days. Heart rate of the animals was assesses at baseline and post-dosing using telemetry acquisition system.

| SMILES | bioavailability ([1]; other: intranasal (drops), 4 ug/kg, intranasal drops 4 μg/kg vs 4 μg/kg i.v.) | bioavailability ([1]; other: ocular (eye drops), 4 ug/kg, eye drops, ocular 4 μg/kg vs 4 μg/kg i.v.) | bioavailability ([1]; other: oromucosal (gel to buccal/gingival mucosa), 5 ug/kg, oromucosal gel 5 μg/kg vs 4 μg/kg i.v.) | absorption ([1]; ocular drops, intranasal drops or oromucosal gel) | irritation (local tolerance) [2] | bioavailability ([3]; oropharyngeal 0.01 mg/kg vs 0.01 mg/kg i.v.) | bioavailability ([3]; oropharyngeal 0.02 mg/kg vs 0.01 mg/kg i.v.) | absorption ([3]; oropharyngeal route) | elimination half-life [4] | heart rate after dosing ([5]; oromucosal gel 18.5 μg/kg alone, male beagle dogs n=3, baseline 93±9 bpm) | prevention of heart rate increase induced by compound (I) ([5]; oromucosal 1 mg/kg concurrent with compound (I) 18.5 μg/kg oromucosal, beagle dogs) |
| --- | --- | --- | --- | --- | --- | --- | --- | --- | --- | --- | --- |
| CC(=O)Nc1ccc(C2=NNC(=O)C[C@H]2C)cc1 [Compound (I), (R)—N-[4-(1,4,5,6-tetrahydro-4-methyl-6-oxo-3-pyridazinyl)phenyl]acetamide] | 82% | 67% | 78% | fast absorption comparable to intravenous administration | No significant irritation | 94.9% | 97.1% | fast absorption comparable to intravenous administration | about 72 h | 167±8 bpm | – |
| COc1cc2c(cc1OC)CC(=O)N(CCCN(C)C[C@H]1Cc3cc(OC)c(OC)cc31)CC2 [ivabradine hydrochloride, reference compound] | – | – | – | – | – | – | – | – | – | – | completely prevent the heart rate increase |
